# Measured values: US20250144107A1, “USE OF A PIKFYVE INHIBITOR IN COMBINATION WITH IMMUNOTHERAPY” (The Regents of the University of Michigan, priority 2023, published 2025)
# Columns and labels:
# [1] = test system: B16-BL6 melanoma model; experiment: B16-BL6 lung metastasis model after removal of primary tumors; type: in vivo, mice; settings: for efficacy of ICB to inhibit metastasis: combination with ICB (anti-PD-1 plus anti-CTLA-4); for lung metastasis: treatment alone
# Method: FIG. 8A (Left) is a box plot of tumor volume of the efficacy of immune checkpoint inhibitors in combination with apilimod or ESK981 treatment against metastasis in a subcutaneous B16BL6 tumor; (Middle) is a series of 12 images of the efficacy of immune checkpoint inhibitors in combination with apilimod or ESK981 treatment against metastasis in a subcutaneous B16BL6 tumor; (Right) is a box plot of the counts of lung tumor metastasis treated with immune checkpoint inhibitors in combination with apilimod or ESK981.
# (§1) All experimental protocols were conducted after approval by the U-M Institutional Animal Care & Use Committee. […] KPC1361 cells were resuspended in PBS, 1:1 (v/v) mixed with Matrigel (BD Biosciences; catalog #: 354248), and orthotopically injected to the pancreases at 250,000 cells in a total volume of 50 μl per injection. B16-F10 cells were resuspended in PBS and injected subcutaneously to both flanks at 400,000 cells per injection. For ACT study, B16-F10-OVA cells were resuspended in PBS and injected subcutaneously to both flanks at 300,000 cells per injection. For lung metastasis experiment, B16-BL6 cells were resuspended in PBS, 1:1 (v/v) mixed with Matrigel and injected subcutaneously to both flanks at 400,000 cells per injection. Fifteen days after tumor cell inoculation, the primary tumors were removed surgically under anesthesia. Thirty-five days after removal of the primary tumors, lung tissues were extracted and fixed, and lung metastasis was quantified. C57BL/6 mice were acquired from The Jackson Laboratory. Measurement of tumor volume began 5-9 days post tumor cell implantation and was performed 2-3 times per week using calipers. Volume measurements of pancreatic tumors were also achieved with calipers, as reported See, e.g., Koikawa, K. et al., Cell 2021; 184(18):4753-4771. In brief, mice were subjected to anesthesia with 2-3% isoflurane, and the abdominal wall then became soft and loose. The mouse was next held with the left hand allowing for the palpation and assessment of the firm pancreatic tumor mass with the right hand. […] Volume (mm^3) of tumor was calculated using (W^2×L)/2, where W stood for minor tumor axis and L for the major. All mice were maintained in a pathogen-free condition, with a 12-hour light/dark cycle.
# (§2) For ICB treatment in KPC1361 pancreatic tumor-bearing mice, randomization was performed when tumors reached approximately 100 mm^3. For ACT and vaccine experiments, the mice were randomized when tumors reached approximately 35 mm^3. Anti-mouse PD-1 (clone RMP1-14) and its isotype control were purchased from BioXcell, administered intraperitoneally at 250 μg per mouse, biweekly. […]
# [2] = test system: KPC1361 cells; experiment: Immunocytochemistry of MHC-I localization and vacuoles; type: cell-based, mouse; settings: IFN-γ stimulated KPC1361 cells, vs DMSO
# Method: FIG. 1D is a series of 6 images showing MHC-I localization in IFN-γ stimulated KPC1361 cells treated with DMSO, Apilimod, or ESK981.
# Cancer cells were seeded on cover glasses coated with 0.01% poly-L-Lysine (Sigma-Aldrich; catalog #: A-005-C). The cells were then treated with DMSO, apilimod, or ESK981, and stimulated with 10 ng/ml mouse recombinant IFN-γ (R&D Systems; catalog #: 485-MI) for 24 hours, followed by fixation with 2% paraformaldehyde in PBS and one washing with PBS. The cells were then permeabilized with 0.25% Triton X-100 in PBS, washed with PBS three times, and blocked with 5% goat serum in PBS for one hour at room temperature. After blocking, the cells were incubated with the MHC-I antibody (ER-HR52; Novus Biologicals; catalog #: NB100-64952) at 4° C. overnight, followed by PBS wash for three times and incubation of secondary antibody, Alexa Fluor 488 goat anti-rat IgG antibody (Jackson Immunoresearch; #112-545-167) at room temperature for one hour. After further washing with PBS three times, the cells were stained with DAPI and mounted on slides for imaging.
# [3] = test system: subcutaneous tumors derived from OVA-expressing B16-F10 cells; experiment: Adoptive cell therapy in subcutaneous B16-F10-OVA tumor model; type: in vivo, mice; settings: combination with ACT
# Text: FIG. 10A is an experimental timeline of the efficacy against subcutaneous ovalbumin-expressing B16-F10 (B16-F10-OVA) tumors treated with adoptive cell therapy (ACT) in combination with apilimod or ESK981.
# FIG. 10B is a series of 6 line graphs showing the growth of subcutaneous ovalbumin-expressing B16-F10 (B16-F10-OVA) tumors treated with adoptive cell therapy (ACT) in combination with apilimod or ESK981.
# FIG. 10C is a line graph of the survival of mice with subcutaneous ovalbumin-expressing B16-F10 (B16-F10-OVA) tumors treated with adoptive cell therapy (ACT) in combination with apilimod or ESK981.
# as §1, §2
# [4] = Body weight of treated tumor-bearing mice; type: in vivo; settings: preclinical models; single agents and in combination with immunotherapies
# Text: FIG. 9B is a line graph of the body weight of pancreatic tumor bearing mice, orthotopically injected with KPC1361 cells and treated with an immune checkpoint inhibitor, apilimod, or ESK981 individually, or in combination with each other.
# FIG. 11A is a line graph of mice body weight treated with adoptive cell therapy (ACT) in combination with apilimod or ESK981.
# FIG. 11B is a line graph of mice body weight treated with personalized vaccines in combination with apilimod or ESK981
structure (smiles),measurement,setting,value
"CC(C)Cn1c2ccc(Nc3ncccn3)cc2c2c3c(c4c(c21)CCc1nn(C)cc1-4)C(=O)NC3 [ESK981, 13-isobutyl-4-methyl-10-(pyrimidin-2-ylamino)-1,2,4,7,8,13-hexahydro-6H-indazolo[5,4-a]pyrrolo[3,4-c]carbazol-6-one]",efficacy of ICB to inhibit metastasis,[1],strongly enhanced
same,lung metastasis,[1],reduction of lung metastasis
same,cell surface expression of MHC-I,[2],increased
same,efficacy of the ACT,[3],strikingly enhanced
same,survival of the animals,[3],significantly extending survival
same,safety profile,[4],favorable safety profiles
"Cc1cccc(/C=N/Nc2cc(N3CCOCC3)nc(OCCc3ccccn3)n2)c1 [apilimod, N-[(E)-(3-methylphenyl)methylideneamino]-6-morpholin-4-yl-2-(2-pyridin-2-ylethoxy)pyrimidin-4-amine]",efficacy of ICB to inhibit metastasis,[1],strongly enhanced
same,lung metastasis,[1],reduction of lung metastasis
same,cell surface expression of MHC-I,[2],increased
same,efficacy of the ACT,[3],strikingly enhanced
same,survival of the animals,[3],significantly extending survival
same,safety profile,[4],favorable safety profiles
